Entries after “also recorded” stand apart in the source; their conditions may differ.
Columns and labels:
hippocampal slices = assay: Field potential recording of epileptiform activity in hippocampal slices (CA3 pyramidal layer); type: cell-based, mouse
[1] = system: KA-induced epileptic burst activities; assay: KA-induced epileptic burst activity in adult mice, EEG recording; type: in vivo, mouse; details: KA 10 mg/kg i.p., NaGcA 2 g/kg i.p., sodium salt
Protocol: To test the in vivo anti-epilepsy effects of gluconate in neonatal and adult rodents, P8-12 Sprague-Dawley rats or 2-month old male C57BL/6 mice were deeply anesthetized with pentobarbital sodium (50 mg/kg for neonatal rat and 100 mg/kg for adult mice, intraperitoneal injection). Two stainless steel screws (1 mm in diameter) were inserted in the skull above the cortex as EEG recording electrodes, one ground electrode as well as one reference electrode were located +1.8 mm anterior to bregma, ±0.5 mm lateral to the midline, and 1 mm below the cortical surface. All electrodes were attached to a micro-connector and fixed onto the skull with dental cement. After surgery, neonatal rats were returned to their mothers and allowed to recover for 2 days prior to subsequent EEG recording. The adult mice were single housed in order to prevent damage of the implanted electrodes and allowed to recover at least 5 days before EEG recording.

[2] = system: PTZ-induced seizure behavior; assay: Seizure behavior test (Racine score) after PTZ; type: in vivo, mouse; details: PTZ 50 mg/kg i.p., adult mice
Protocol: Male mice were divided into three groups: vehicle control group (saline, n=9), D-gluconic acid sodium at 1 g/kg group (n=10), and D-gluconic acid sodium at 2 g/kg group (n=11). PTZ (50 mg/kg) was intraperitoneally administered 1 hr after drug treatment. After PTZ injection, the behavior was monitored and observed for 1 hr. The seizure behavior was classified according to Racine Score: stage 0, no response; stage 1, facial twitching; stage 2, nod; stage 3, forelimb clonic, tail upright; stage 4, stand with forelimbs clonic; stage 5, stand and fall, jump, general clonic seizure, general clonic and tonic seizure or death. Racine et al., “Modification of seizure activity by electrical stimulation. 3. Mechanisms” Electroencephalogr Clin Neurophysiol 32:295-299 (1972).

[3] = system: GABAA-R reversal potential (EGABA); assay: Gramicidin-perforated whole-cell recording of GABAA-R reversal potential (EGABA) in CA3 pyramidal neurons; type: cell-based, mouse
Protocol: To further test this idea, the GABAA-R reversal potential (EGABA), which governs GABA excitatory versus inhibitory function, was directly measured using gramicidin-perforated whole-cell recordings in neonatal mouse brain slices (e.g., P8-P9). As expected, epileptiform activity induced a large depolarizing shift in EGABA after treating hippocampal slices with 0 Mg^2+ aCSF for 1 h (aCSF: −59.2±2.0 mV, n=13; 0 Mg^2+: −48.2±1.1 mV, n=10). FIG. 16D. Treatment with bumetanide (Bum, 10 μM), a specific blocker for NKCC1 at low concentrations, induced a hyperpolarizing shift in EGABA (blue line) as compared to a control EGABA (dashed line). […]. […] Kaila et al., “Cation-chloride cotransporters in neuronal development, plasticity and disease” Nature Reviews. Neuroscience 15:637-654 (2014); Dzhala et al., “NKCC1 transporter facilitates seizures in the developing brain” Nature Medicine 11:1205-1213 (2005); and Loscher et al., “Cation-chloride cotransporters NKCC1 and KCC2 as potential targets for novel antiepileptic and antiepileptogenic treatments” Neuropharmacology 69:62-74 (2013). […] FIG. 16E, yellow line; Bum, −68.0±1.7 mV (n=9); 0 Mg^2++Bum, −50.2±1.4 mV (n=9); (p<0.002).

[4] = system: cultured cortical neurons; assay: Epileptiform burst activity in cultured cortical neurons (whole-cell patch-clamp); type: cell-based, mouse
Protocol: Mouse cortical neurons were prepared from newborn C57BL/6 mice as previously described. Qi et al., “Cyclothiazide induces robust epileptiform activity in rat hippocampal neurons both in vitro and in vivo” The Journal Of Physiology 571:605-618 (2006). Briefly, the newborn mouse cerebral cortices were dissected out in ice-cold HEPES-buffered saline solution, washed and digested with 0.05% trypsin-EDTA at 37° C. for 20 min. After deactivation of trypsin with serum-containing medium, cells were centrifuged, resuspended, and seeded on a monolayer of cortical astrocytes at a density of 10,000 cells/cm^2 in 24-well plates. The neuronal culture medium contained MEM (500 ml, Invitrogen), 5% fetal bovine serum (Atlanta Biologicals), 10 ml B-27 supplement (Invitrogen), 100 mg NaHCO3, 2 mM Glutamax (Invitrogen), and 25 units/ml penicillin & streptomycin. AraC (4 μM, Sigma) was added to inhibit the excessive proliferation of astrocytes. Cell cultures were maintained in a 5% CO2-humidified incubator at 37° C. for 14-21 days.
The cultured neurons were placed in the recording chamber with continuous perfusion of the bath solution consisting of (mM): 128 NaCl, 10 Glucose, 25 HEPES, 5 KCl, 2 CaCl2, 1 MgSO4, pH 7.3 adjusted with NaOH, and osmolarity ˜300 mOsm. For recording spontaneous firing under current clamp mode, pipettes were filled with an internal solution containing (in mM): 125 K-gluconate, 5 Na-phosphocreatine, 5 EGTA, 10 KCl, 10 HEPES, 4 Mg-ATP, 0.3 Na-GTP, 280-290 mOsm, pH 7.3 adjusted with KOH. Epileptiform activity in cultured neurons was induced either by 10 μM CTZ for 24 h, or 1 μM KA for 2 h, or 50 μM 4-AP for 2 h. The burst activity was defined as previously described. Qi et al., “Cyclothiazide induces robust epileptiform activity in rat hippocampal neurons both in vitro and in vivo” The Journal Of Physiology 571:605-618 (2006). In brief, at least five consecutive action potentials overlaying on top of the large depolarization shift (≥10 mV depolarization and ≥300 ms in duration).

[5] = 0 Mg2+ aCSF, WT slices P8-12 pre-treated with 20 mM NaGcA

O=C([O-])[C@H](O)[C@@H](O)[C@H](O)[C@H](O)CO.[Na+] [NaGcA, D-gluconic acid sodium salt]
reduction of average power of epileptic activity (hippocampal slices; 0 Mg2+ aCSF, 20 mM NaGcA, P6-8): 59.6±4.3% | reduction of average power of epileptic activity (hippocampal slices; 0 Mg2+ aCSF, 20 mM NaGcA, P10-12): 62.1±3.8% | reduction of average power of epileptic activity (hippocampal slices; 0 Mg2+ aCSF, 20 mM NaGcA, P21-33): 23.8±4.1% | burst latency (hippocampal slices; [5]): significantly prolonged | total burst activity (hippocampal slices; [5]): significantly reduced | epileptic activity induced by 4-AP (hippocampal slices; 50 μM 4-AP, neonatal slices, 20 mM NaGcA, sodium salt): significantly reduced; also recorded: attenuated | epileptiform activity induced by 0 Mg2+ aCSF, neonatal slices (hippocampal slices; 20 mM NaGcA, P6-12, sodium salt): strong inhibition; also recorded: strong efficacy; also recorded: dramatically reduced; also recorded: potent anti-epileptic effect; also recorded: inhibited | epileptiform activity induced by 0 Mg2+ aCSF, older animals (hippocampal slices; 20 mM NaGcA, P21-33 (P26), sodium salt): modest effect; also recorded: much less inhibition; also recorded: much smaller; also recorded: moderate anti-epileptic discharges effect; also recorded: less effect | reduction of the power amplitude (hippocampal slices; 4-AP (50 μM) model, neonatal slices, 20 mM NaGcA): 70.2±5.3% | reduction of the power amplitude (hippocampal slices; high K+ (8.5 mM) model, neonatal slices, 20 mM NaGcA): 70.8±4.9% | epileptic burst activity in high K+ model (hippocampal slices; high K+ aCSF (8.5 mM), neonatal slices, 20 mM NaGcA, sodium salt): remarkably suppressed; also recorded: blocked; also recorded: dramatically reduced | KA-induced epileptic burst activities / EEG power in adult animals ([1]; listed as gluconate): less inhibition | KA-induced epileptic burst activities / EEG power in adult animals [1]: modest effect; also recorded: modestly inhibited | behavioral seizure score [2]: mild inhibitory effect | latency of seizure behavior (Racine score 3 and above) [2]: dose-dependently prolonged | EGABA in 0 Mg2+ aCSF in CLC-3 KO mice ([3]; CLC-3 KO mice, application of NaGcA): −56.6±2.4 mV | positive EGABA shift induced by 0 Mg2+ aCSF ([3]; neonatal CA3 neurons): completely abolishes | EGABA in 0 Mg2+ aCSF ([3]; neonatal P8-P9, 0 Mg2+ aCSF, bumetanide 10 μM, VU0240551 10 μM, NaGcA 20 mM): −59.3±1.7 mV | EGABA in normal aCSF ([3]; neonatal P8-P9, bumetanide 10 μM, VU0240551 10 μM, NaGcA 20 mM): −60.3±0.9 mV | KA-induced epileptiform burst activity ([4]; 1 μM KA for 2 hrs, 10 mM NaGcA, sodium salt): greatly suppressed; also recorded: dramatically suppressed | neurons showing epileptiform activity after CTZ co-treatment ([4]; 10 μM CTZ together with 10 mM NaGcA, 3 out of 17 neurons): 18% | 4-AP-induced epileptiform activity ([4]; 50 μM 4-AP for 2 hrs, 10 mM NaGcA, sodium salt): completely blocked; also recorded: obviously suppressed | CTZ-induced epileptiform burst activity ([4]; 10 mM NaGcA, acute application): completely blocked | spontaneous epileptiform activity (burst action potentials) ([4]; 5-20 mM NaGcA in bath solution (FIG. 1A: 20 mM), sodium salt): inhibited spontaneous epileptiform activity; also recorded: stopped immediately | induction of epileptiform activity by CTZ ([4]; co-application of 10 μM CTZ and 10 mM NaGcA during induction, sodium salt): great reduction; also recorded: lack of burst activity | average frequency and duration of epileptiform bursts ([4]; neurons co-treated with CTZ and NaGcA (5 and 10 mM)): significantly reduced

— patent US11666640B2, “Glucose oxidase compositions as a neonate anticonvulsant” (PENN STATE RESEARCH FOUNDATION, priority 2018, dated 2023)
